From ChEMBL document CHEMBL1201862, “PubChem BioAssay data set” (2004) come the findings set out here.

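Test compounds were applied to cells in 96-well plates for 48 hours at 5 doses. GI50 is the concentration that inhibits growth by half.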 The source made the active and inactive calls. Rule as the data show it: active = GI50 up to about 1.1 µM and inactive = higher. Where only a bound is given, the exact number is not on record here.

Some test systems named below: OVCAR-8; Hs-578T; NCI/ADR-RES; SK-MEL-5; K562; HCT-15; 786-0; MCF7; HCT-116; OVCAR-5; OVCAR-3; A549; COLO 205; IGROV-1; MDA-MB-231; M14; ACHN; T47D; HL-60; NCI-H226.
Common to all, as to assay: DTP human tumour cell line panel, 48 h

Take `C=CCN1C(=O)CC2[C@@H]3CCc4cc(O)ccc4C3CC[C@]2(C)C1=O` (some centres undefined): the GI50 was > 10 µM (inactive) in the assay on OVCAR-8; > 10 µM (inactive) in the assay on Hs-578T; > 10 µM (inactive) with NCI/ADR-RES; > 10 µM (inactive) with SK-MEL-5; > 10 µM (inactive) in the assay with K562; above 10 µM with HCT-15. The GI50 in the assay with 786-0, in the assay with MCF7, in the assay with HCT-116, with OVCAR-5, in the assay on OVCAR-3 and with A549 was > 10 µM (inactive) throughout. Also, the GI50 with COLO 205, with IGROV-1, in the assay with MDA-MB-231, in the assay with M14, in the assay on ACHN and in the assay with T47D was > 10 µM (inactive) each time. The GI50 in the assay on HL-60 and in the assay with NCI-H226 was > 10 µM (inactive) each time.

Take `COc1cc(-c2nc(SC)nc3c2CCc2ccccc2-3)cc(OC)c1OC`: the GI50 is 50.6 µM (inactive) with OVCAR-8; > 100 µM (inactive) with Hs-578T; 36.3 µM (inactive) in the assay with NCI/ADR-RES; 37 µM (inactive) with SK-MEL-5; 22.3 µM (inactive) in the assay with K562; 50.6 µM (inactive) with 786-0. Also, the GI50 in the assay on MCF7 was 50.1 µM (inactive); in the assay on HCT-116 it was 47.8 µM (inactive); in the assay on OVCAR-5 it was > 100 µM (inactive); with OVCAR-3 it was 95.1 µM (inactive); in the assay with A549, > 100 µM (inactive); in the assay on COLO 205, 53.5 µM (inactive). The GI50 in the assay on IGROV-1 is 65.3 µM (inactive); with MDA-MB-231 it was 28.3 µM (inactive); in the assay with M14, > 100 µM (inactive); in the assay on ACHN, > 100 µM (inactive); in the assay with T47D it was 26.8 µM (inactive); in the assay with HL-60, > 100 µM (inactive). In the assay on NCI-H226, the GI50 was > 10 µM (inactive).

As for `O=C(c1ccccc1)N(CCCCNC(=O)C(F)(F)F)CCCNC(=O)C(F)(F)F`, the GI50 is > 100 µM (inactive) in the assay on OVCAR-8; > 100 µM (inactive) in the assay on Hs-578T; > 100 µM (inactive) with NCI/ADR-RES; > 100 µM (inactive) in the assay with SK-MEL-5; > 100 µM (inactive) with K562; above 100 µM with HCT-15. For the same compound, the GI50 in the assay on 786-0, in the assay with MCF7, in the assay with HCT-116, in the assay with OVCAR-5, with A549 and in the assay with COLO 205 was > 100 µM (inactive) in each case. Besides, the GI50 in the assay with IGROV-1, in the assay with MDA-MB-231, in the assay on M14, in the assay on ACHN, in the assay on T47D and in the assay with HL-60 was > 100 µM (inactive) in each case. Also, the GI50 in the assay on NCI-H226 is > 100 µM (inactive).

Regarding `COc1cc(/C=C2\Sc3scc(-c4cccc([N+](=O)[O-])c4)[n+]3C2=O)cc(OC)c1OC`, the GI50 is 15.5 µM (inactive) in the assay on OVCAR-8; 10.8 µM (inactive) in the assay on Hs-578T; 17.4 µM (inactive) in the assay on NCI/ADR-RES; 6.1 µM (inactive) in the assay on SK-MEL-5; 4.54 µM (inactive) in the assay with K562; 10.4 µM (inactive) in the assay with 786-0. Moreover, the GI50 was 4.15 µM (inactive) in the assay on MCF7; 11.1 µM (inactive) in the assay with HCT-116; 20.8 µM (inactive) with OVCAR-5; 15.8 µM (inactive) with OVCAR-3; 19.2 µM (inactive) with A549; 3.87 µM (inactive) in the assay on COLO 205. The GI50 with IGROV-1 was 14 µM (inactive); in the assay on MDA-MB-231, 7.29 µM (inactive); in the assay on M14, 11.7 µM (inactive); in the assay on ACHN, 14.9 µM (inactive); with T47D, 5.56 µM (inactive); in the assay on HL-60, 36.7 µM (inactive). In the assay on NCI-H226, the GI50 was 5.2 µM (inactive).

Take `CSC(=S)N(C)C` [CYSTOGON]: the GI50 with OVCAR-8 is > 100 µM (inactive); with Hs-578T it was > 100 µM (inactive); with NCI/ADR-RES it was > 100 µM (inactive); in the assay on SK-MEL-5, > 100 µM (inactive); in the assay on K562, > 100 µM (inactive); with HCT-15, above 100 µM. Also, the GI50 in the assay with 786-0, with MCF7, in the assay on HCT-116, in the assay with OVCAR-5, in the assay with OVCAR-3 and in the assay on A549 was > 100 µM (inactive) in each case. In addition, the GI50 in the assay with COLO 205, with IGROV-1, in the assay with MDA-MB-231, in the assay with M14, in the assay on T47D and in the assay on HL-60 was > 100 µM (inactive) each time. Moreover, the GI50 in the assay on NCI-H226 is > 100 µM (inactive).

For the compound `Cc1cccc2c1C(=O)C(C1OC(=O)c3ccccc31)C2` (centres undefined), the GI50 in the assay on OVCAR-8 is > 100 µM (inactive); in the assay with Hs-578T, 43.9 µM (inactive); with NCI/ADR-RES, > 100 µM (inactive); in the assay with SK-MEL-5, 95.5 µM (inactive); with K562 it was > 100 µM (inactive); in the assay on HCT-15, above 100 µM. Further, the GI50 in the assay on 786-0 was > 100 µM (inactive); in the assay with MCF7, > 100 µM (inactive); in the assay with HCT-116, 90.6 µM (inactive); in the assay on OVCAR-5, > 100 µM (inactive); with OVCAR-3, > 100 µM (inactive); with A549, > 100 µM (inactive). Also, the GI50 in the assay with COLO 205, in the assay on IGROV-1, with MDA-MB-231, with ACHN, with T47D and in the assay on HL-60 was > 100 µM (inactive) each time. Moreover, the GI50 in the assay on NCI-H226 was > 100 µM (inactive).

Take `CC(C)(O)[C@@H]1CC[C@](C)(C2[C@@H](O)C[C@@]3(C)C4C[C@H](OC5OCC(O)C(O)C5O)[C@H]5C(C)(C)[C@@H](OC6OCC(O)C(O)C6OC6OCC(O)C(O)C6O)CC[C@@]56C[C@@]46CC[C@]23C)O1` (some centres undefined): the GI50 was > 100 µM (inactive) with OVCAR-8; > 100 µM (inactive) in the assay on Hs-578T; > 100 µM (inactive) in the assay with NCI/ADR-RES; > 100 µM (inactive) with SK-MEL-5; > 100 µM (inactive) in the assay with K562; above 100 µM in the assay on HCT-15. Also, the GI50 with 786-0, in the assay with MCF7, in the assay with HCT-116, with OVCAR-5, with OVCAR-3 and in the assay with A549 was > 100 µM (inactive) in each case. Moreover, the GI50 in the assay with COLO 205, in the assay with IGROV-1, in the assay with MDA-MB-231, with M14, with T47D and with HL-60 was > 100 µM (inactive) each time. Moreover, the GI50 with NCI-H226 was > 100 µM (inactive).

As to `NC(=O)NC(=O)c1cccc(NC(=O)CCl)c1`, the GI50 in the assay on OVCAR-8 is 2.22 µM (inactive); with Hs-578T, 3.9 µM (inactive); with NCI/ADR-RES it was 1.65 µM (inactive); in the assay with SK-MEL-5, 0.71 µM (active); in the assay on K562, 0.714 µM (active); with HCT-15, 0.948 µM. Further, the GI50 in the assay with 786-0 is 1.06 µM (active); in the assay on MCF7, 0.989 µM (active); with HCT-116, 0.392 µM (active); with OVCAR-5 it was 1.65 µM (inactive); in the assay with OVCAR-3 it was 0.223 µM (active); with COLO 205, 0.394 µM (active). Further, the GI50 was 2.79 µM (inactive) in the assay with IGROV-1; 2.79 µM (inactive) with MDA-MB-231; 2.56 µM (inactive) in the assay on ACHN; 2.18 µM (inactive) in the assay on T47D; 0.569 µM (active) in the assay on HL-60; 2.19 µM (inactive) in the assay on NCI-H226.

With `CC(=O)NC1=C(Sc2ccc(Cl)cc2)C(=O)c2ccccc2C1=O`, the GI50 is 2.04 µM (inactive) in the assay with OVCAR-8; 10.4 µM (inactive) in the assay with Hs-578T; 2.37 µM (inactive) in the assay with NCI/ADR-RES; 1.85 µM (inactive) in the assay with SK-MEL-5; 2.56 µM (inactive) in the assay with K562; 4.15 µM with HCT-15. Moreover, the GI50 in the assay with 786-0 is 2.09 µM (inactive); in the assay on MCF7, 2.08 µM (inactive); in the assay with OVCAR-5 it was 11.7 µM (inactive); with OVCAR-3, 2.05 µM (inactive); in the assay on A549 it was 11.5 µM (inactive); in the assay on COLO 205, 2 µM (inactive). Further, the GI50 was 4.84 µM (inactive) in the assay with IGROV-1; 3.04 µM (inactive) in the assay on MDA-MB-231; 1.8 µM (inactive) in the assay with ACHN; 2.06 µM (inactive) in the assay with T47D; 0.285 µM (active) in the assay with HL-60; 10.6 µM (inactive) in the assay with NCI-H226.

As to `COc1nc(=O)n(C2CC(F)C(CO)O2)cc1C` (centres undefined), the GI50 with OVCAR-8 is > 100 µM (inactive); with Hs-578T, > 100 µM (inactive); in the assay on NCI/ADR-RES, > 100 µM (inactive); in the assay with SK-MEL-5 it was > 100 µM (inactive); in the assay on K562, > 100 µM (inactive); with HCT-15, above 100 µM. For the same compound, the GI50 with 786-0, in the assay on MCF7, in the assay with HCT-116, in the assay with OVCAR-3, with A549 and with COLO 205 was > 100 µM (inactive) each time. Moreover, the GI50 with IGROV-1, in the assay on MDA-MB-231, with M14, in the assay on ACHN, in the assay on T47D and in the assay on HL-60 was > 100 µM (inactive) each time. In addition, the GI50 in the assay with NCI-H226 is > 100 µM (inactive).
